Assays:
Experiment in all cases: adenylation: pyrophosphate exchange or coupled pyrophosphate release assay
Format in all cases: biochemical
Details in all cases: adenylation step; ATP
[1] = target: T1, glycyl-tRNA synthetase (GlyRS, class IIC) (Escherichia coli, UniProt P00960)
T1 sequence (P00960 1-303): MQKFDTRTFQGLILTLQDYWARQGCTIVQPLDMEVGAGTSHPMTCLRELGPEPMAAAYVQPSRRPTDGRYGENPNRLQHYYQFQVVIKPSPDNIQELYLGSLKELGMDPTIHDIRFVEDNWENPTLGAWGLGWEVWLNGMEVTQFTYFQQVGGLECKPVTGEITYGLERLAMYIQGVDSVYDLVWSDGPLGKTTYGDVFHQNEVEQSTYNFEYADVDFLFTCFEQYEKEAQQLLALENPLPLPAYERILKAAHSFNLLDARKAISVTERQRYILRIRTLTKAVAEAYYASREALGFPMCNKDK
T1 sequence (P00961 2-689 partner): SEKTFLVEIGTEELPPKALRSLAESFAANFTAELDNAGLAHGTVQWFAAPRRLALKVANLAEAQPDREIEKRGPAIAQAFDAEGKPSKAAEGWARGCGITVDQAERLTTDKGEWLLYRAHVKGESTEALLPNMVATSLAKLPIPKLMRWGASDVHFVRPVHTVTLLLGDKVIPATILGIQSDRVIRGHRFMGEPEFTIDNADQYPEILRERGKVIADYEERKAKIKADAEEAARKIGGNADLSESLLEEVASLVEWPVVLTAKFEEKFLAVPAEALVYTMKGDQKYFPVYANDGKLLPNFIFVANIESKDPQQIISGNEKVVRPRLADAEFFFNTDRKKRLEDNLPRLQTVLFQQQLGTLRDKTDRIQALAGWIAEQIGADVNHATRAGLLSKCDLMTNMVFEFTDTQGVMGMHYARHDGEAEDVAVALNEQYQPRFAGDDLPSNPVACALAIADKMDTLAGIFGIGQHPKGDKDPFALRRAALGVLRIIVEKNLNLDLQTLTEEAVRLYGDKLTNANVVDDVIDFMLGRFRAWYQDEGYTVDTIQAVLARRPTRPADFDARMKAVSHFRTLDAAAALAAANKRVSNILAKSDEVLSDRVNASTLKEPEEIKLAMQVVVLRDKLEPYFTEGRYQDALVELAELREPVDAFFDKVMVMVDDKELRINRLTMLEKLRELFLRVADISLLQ

[2] = target: phenylalanyl-tRNA synthetase (PheRS, class IIC) (Escherichia coli, UniProt P08312)
[3] = target: T2, tyrosyl-tRNA synthetase (TyrRS, class IC) (Escherichia coli, UniProt P0AGJ9)
T2 sequence (P0AGJ9 2-424): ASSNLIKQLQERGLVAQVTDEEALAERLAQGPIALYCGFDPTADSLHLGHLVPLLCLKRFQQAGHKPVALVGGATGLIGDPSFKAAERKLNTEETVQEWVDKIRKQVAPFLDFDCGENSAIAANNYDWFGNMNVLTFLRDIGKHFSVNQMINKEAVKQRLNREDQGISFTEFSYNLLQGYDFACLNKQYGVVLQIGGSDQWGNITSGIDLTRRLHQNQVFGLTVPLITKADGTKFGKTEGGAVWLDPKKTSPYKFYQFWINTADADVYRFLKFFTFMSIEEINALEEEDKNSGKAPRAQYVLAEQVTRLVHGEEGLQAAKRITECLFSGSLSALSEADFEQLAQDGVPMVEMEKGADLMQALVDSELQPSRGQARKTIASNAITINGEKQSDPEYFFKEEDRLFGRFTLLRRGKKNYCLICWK

Chain of phenylalanyl-tRNA synthetase (PheRS, class IIC) (P08312 whole entry): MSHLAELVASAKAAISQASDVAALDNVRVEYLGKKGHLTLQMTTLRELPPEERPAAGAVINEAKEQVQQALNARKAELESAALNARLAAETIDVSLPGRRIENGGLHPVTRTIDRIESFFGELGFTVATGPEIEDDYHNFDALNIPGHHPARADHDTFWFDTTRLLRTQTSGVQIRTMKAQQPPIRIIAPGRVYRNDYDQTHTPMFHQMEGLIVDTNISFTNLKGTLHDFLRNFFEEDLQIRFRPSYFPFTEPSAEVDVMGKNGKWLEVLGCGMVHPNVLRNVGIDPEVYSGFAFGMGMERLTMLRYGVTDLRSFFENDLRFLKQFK
Chain of phenylalanyl-tRNA synthetase (PheRS, class IIC) (P07395 whole entry partner): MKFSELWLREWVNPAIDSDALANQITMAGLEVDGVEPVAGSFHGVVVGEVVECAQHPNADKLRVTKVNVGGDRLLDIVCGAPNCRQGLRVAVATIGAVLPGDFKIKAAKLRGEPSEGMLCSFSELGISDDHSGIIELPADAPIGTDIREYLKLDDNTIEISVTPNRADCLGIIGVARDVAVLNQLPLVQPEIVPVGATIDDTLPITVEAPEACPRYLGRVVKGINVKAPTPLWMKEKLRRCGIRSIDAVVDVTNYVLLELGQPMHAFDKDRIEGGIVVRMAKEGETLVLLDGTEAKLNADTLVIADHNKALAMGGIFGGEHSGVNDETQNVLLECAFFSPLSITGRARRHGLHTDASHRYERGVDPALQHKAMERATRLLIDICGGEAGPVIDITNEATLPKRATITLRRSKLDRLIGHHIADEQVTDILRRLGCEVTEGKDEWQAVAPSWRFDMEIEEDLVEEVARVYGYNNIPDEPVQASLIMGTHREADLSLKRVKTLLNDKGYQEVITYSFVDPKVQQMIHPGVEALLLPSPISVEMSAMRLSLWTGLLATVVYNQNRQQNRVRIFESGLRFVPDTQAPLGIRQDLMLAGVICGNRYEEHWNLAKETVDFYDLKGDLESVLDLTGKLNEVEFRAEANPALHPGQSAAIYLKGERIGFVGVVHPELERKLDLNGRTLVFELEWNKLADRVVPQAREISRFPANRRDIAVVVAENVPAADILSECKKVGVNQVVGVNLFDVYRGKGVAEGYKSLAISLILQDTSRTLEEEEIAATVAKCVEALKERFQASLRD

SMILES | KM [1] | KM [2] | other results
NCC(=O)O [α-Gly] | GlyRS and PheRS (class II) tolerate the expanded β^3-amino acid backbone | – | –
N[C@@H](Cc1ccccc1)C(=O)O [α-Phe] | – | GlyRS and PheRS (class II) tolerate the expanded β^3-amino acid backbone | –
N[C@@H](Cc1ccc(O)cc1)C(=O)O [α-Tyr] | – | – | KM [3]: GluRS and TyrRS (both class I) show the greatest selection against β^3-amino acid substrates
NCCC(=O)O [β^3-Gly] | GlyRS and PheRS (class II) tolerate the expanded β^3-amino acid backbone | – | –
NC(CC(=O)O)Cc1ccccc1 (stereo not drawn) [β^3-Phe] | – | GlyRS and PheRS (class II) tolerate the expanded β^3-amino acid backbone | –
